This note sets out measurements from ChEMBL document CHEMBL2429746, “Cell-based medicinal chemistry optimization of high throughput screening hits for orally active antimalarials. Part 2: hits from SoftFocus kinase and other libraries” (J Med Chem, 2013).

Data set [1] concerns Plasmodium falciparum. Description: Antimalarial activity against Plasmodium falciparum infected in NOD SCID mouse after 4 days by Peters test. The conditions noted are these: 96 h. The data set is classed as functional.
In data set [2] the test system is Plasmodium falciparum. Description: Antimalarial activity against blood stage of Plasmodium falciparum Dd2 assessed as parasite viability after 72 hrs by SYBR green dye-based assay. In kind it is functional, organism-based. The conditions noted are these: Dd2, 72 h.
Data set [3] has as its system Plasmodium falciparum. Briefly: Antimalarial activity against blood stage of Plasmodium falciparum 3D7 assessed as parasite viability after 72 hrs by SYBR green dye-based assay. The data set is classed as functional, organism-based. Particulars: 3D7, 72 h.
Data set [4] deals with Plasmodium falciparum. Description: Antimalarial activity against Plasmodium falciparum infected in po dosed SCID mouse assessed as reduction in parasitaemia by Peters test. In kind it is functional.
Data set [5] in a line: Half life in Sprague-Dawley rat at 5 mg/kg, po. The data set is classed as ADME, organism-based. Also on record: dose 5 mg/kg, route oral. Particulars: in vivo.

Each structure is given as a SMILES string.

In the data set with Plasmodium falciparum [1], `O=C(O)CCc1cccc2c1B(O)OC2` came in with an ED90 of 0.6 mg/kg.

Take `NC1=Nc2ccc(Cl)cc2C1(O)c1ccccc1` (stereo not given): the half-maximal inhibitory concentration (IC50) is 507 nM in the data set on Plasmodium falciparum [2] and 216 nM in the data set on Plasmodium falciparum [3].

For the compound `COc1ccc(-c2cc(-c3ccc(S(C)(=O)=O)cc3)cnc2N)cn1`, the ED90 in the data set on Plasmodium falciparum [4] is 3.6 mg/kg. In addition, the half-life in data set [5] is 8.7 h.

In general, IC50 refers to the concentration that gives 50% inhibition. As usually defined, the half-life is how long it takes for the measured level to halve. Low values mean rapid decline, high ones slow decline.
